Results taken from patent US20230212180A1, “SUBSTITUTED PYRAZINE COMPOUND, PHARMACEUTICAL COMPOSITION COMPRISING SAME, AND USE THEREOF” (Sichuan Kelun-Biotech Biopharmaceutical Co., Ltd., priority 2020, published 2023).
Where two headings read alike, the source gives them in different places. Values belong to the compound of their own block, whether it stands above or below them.

Tests used:
CYP1A2 = target: T1, CYP1A2 (Homo sapiens, UniProt P05177); test: Biochemical assay for CYP enzyme inhibition, P450-Glo CYP1A2 Screening System; format: in vitro ADME
T1 construct: purchased Promega
T1 sequence (P05177 1-516): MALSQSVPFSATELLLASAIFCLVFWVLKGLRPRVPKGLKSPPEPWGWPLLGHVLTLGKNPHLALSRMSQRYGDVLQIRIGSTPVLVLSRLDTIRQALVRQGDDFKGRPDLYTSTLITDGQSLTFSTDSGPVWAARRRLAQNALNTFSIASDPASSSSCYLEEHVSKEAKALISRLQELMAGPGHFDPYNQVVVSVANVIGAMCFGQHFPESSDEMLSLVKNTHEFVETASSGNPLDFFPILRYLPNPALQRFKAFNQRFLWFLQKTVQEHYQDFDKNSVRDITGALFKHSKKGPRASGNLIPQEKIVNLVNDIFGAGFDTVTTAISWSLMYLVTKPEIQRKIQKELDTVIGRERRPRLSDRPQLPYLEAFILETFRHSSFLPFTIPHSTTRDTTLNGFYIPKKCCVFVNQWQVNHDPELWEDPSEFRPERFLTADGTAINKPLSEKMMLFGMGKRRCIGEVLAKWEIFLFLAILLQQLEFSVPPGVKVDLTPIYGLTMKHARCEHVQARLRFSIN
Protocol: (§1) Test Example 5: Biochemical Assay for CYP Enzyme (Cytochrome P450) Inhibition
P450-Glo™ CYP1A2 Screening System, (Promega);
(§2) BMG PHERAstar FS Luminescent.
(§3) The experiments were carried out separately according to the instructions of the kits. The steps were as follows:
3.1. Inhibition Against CYP1A2:
(§4) Test group: The test compounds at different concentrations were added into a microplate, and Luciferin-ME (100 μM), K3PO4 (100 mM), and CYP1A2 (0.01 μmol/μL) were added into each well, and pre-incubated at room temperature for 10 min. Thereafter, an NADPH regeneration system was added. The mixture was reacted at room temperature for 30 min. Finally, an equal volume of detection buffer was added and incubated at room temperature for 20 min, followed by chemiluminescence detection.
(§5) Negative control group: The experimental method for the negative control group was the same as that for the test group, except that the test compound was not added.
Blank control group: The experimental method for the blank control group was the same as that for the test group, except that the test compound was not added and that CYP1A2 was replaced with CYP1A2 Membrance (0.01 μmol/μL).
(§6) Percentage inhibition=(1−(the chemiluminescent signal value of the test compound group at a certain test concentration−the chemiluminescent signal value of the blank control group)/(the chemiluminescent signal value of the negative control group−the chemiluminescent signal value of the blank control group))×100%.
(§7) When the percentage inhibition was between 30% and 80%, a single value or a value range of the half maximal inhibitory concentration (IC50) of the compound against the CYP enzyme was estimated based on the following equation: IC50=X×(1−percentage inhibition)/percentage inhibition, wherein X was the test concentration of the compound.

CYP2D6 = target: T2, CYP2D6 (Homo sapiens, UniProt P10635); test: Biochemical assay for CYP enzyme inhibition, P450-Glo CYP2D6 Screening System; format: in vitro ADME
T2 construct: purchased Promega
Protocol: as §1
P450-Glo™ CYP2D6 Screening System, (Promega);
as §2, §3
3.2. Inhibition Against CYP2D6:
as §4, with “and Luciferin-ME EGE (3 μM), K3PO4” for “and Luciferin-ME (100 μM), K3PO4”, “mM), and CYP2D6 (5 nM) were added” for “mM), and CYP1A2 (0.01 μmol/μL) were added”, “reacted at 37° C. for 30” for “reacted at room temperature for 30”
as §5
Blank control group: The experimental method for the blank control group was the same as that for the test group, except that the test compound was not added and that CYP2D6 was replaced with CYP2D6 Membrance (5 nM).
as §6, §7

[1] = test system: KYSE-520 cell (human esophageal squamous cell carcinoma cell); test: Inhibition of the proliferation activity of KYSE-520 cell (CellTiter-Glo); format: cell-based; settings: 120 h, KYSE-520 cell proliferation, 5 days
Protocol: Test Example 2: Experiment on the Inhibition of the Proliferation Activity of KYSE-520 Cell (Human Esophageal Squamous Cell Carcinoma Cell)
cell: KYSE-520 (JCRB Cell Bank);
(§8) kit: CellTiter-Glo® Luminescent Cell Viability Assay Kit (Promega).
(§9) inoculation amount of cell: 1500 cells/well;
incubation conditions for compound: 37° C., 5% CO2;
(§10) incubation duration: 5 days;
(§11) detecting temperature: room temperature;
(§12) chemiluminescence detection using the BMG PHERAstar FS reader.
(§13) Cells were cultured in a medium containing 10% fetal bovine serum under the culture conditions of 37° C. and 5% CO2. An appropriate amount of cells were plated into a 96-well plate and cultured overnight in an incubator to allow the cells to adhere to the wall. The following day, the medium was removed and a complete medium containing a pre-diluted compound was added and incubated at 37° C. for 5 days. On the fifth day, the detection reagent CellTiter-Glo® was added into each well. Chemiluminescence was adopted to detect the relative luminescence units (RLUs) of the wells.
(§14) The result of a well containing cell-free medium, treated with CellTiter-Glo®, was obtained as the blank value. Cell viability (%)=(sample RLU−blank RLU)/(vehicle RLU−blank RLU)×100%, and maximum inhibition rate (%)=100%−cell viabilitymax. conc. (%). The half maximal inhibitory concentration (IC50) of the compound was calculated by fitting the curve according to the four-parameter logistic model.

[2] = test system: NCI-H358 cell (human non-small cell lung cancer cell); test: Inhibition of the proliferation activity of NCI-H358 cell (CellTiter-Glo); format: cell-based; settings: 120 h, 5 days
Protocol: Test Example 4: Experiment on the Inhibition of the Proliferation Activity of NCI-H358 Cell (Human Non-Small Cell Lung Cancer Cell)
cell: NCI-H358 (Nanjing CoBioer);
as §8, §9
incubation conditions for compounds: 37° C., 5% CO2;
as §10, §11, §12, §13, §14

[3] = estimated from percentage inhibition, read-out: IC50 (μM) CYP2D6
[4] = estimated from percentage inhibition, read-out: IC50 (μM) CYP1A2

T2 sequence (P10635 whole entry): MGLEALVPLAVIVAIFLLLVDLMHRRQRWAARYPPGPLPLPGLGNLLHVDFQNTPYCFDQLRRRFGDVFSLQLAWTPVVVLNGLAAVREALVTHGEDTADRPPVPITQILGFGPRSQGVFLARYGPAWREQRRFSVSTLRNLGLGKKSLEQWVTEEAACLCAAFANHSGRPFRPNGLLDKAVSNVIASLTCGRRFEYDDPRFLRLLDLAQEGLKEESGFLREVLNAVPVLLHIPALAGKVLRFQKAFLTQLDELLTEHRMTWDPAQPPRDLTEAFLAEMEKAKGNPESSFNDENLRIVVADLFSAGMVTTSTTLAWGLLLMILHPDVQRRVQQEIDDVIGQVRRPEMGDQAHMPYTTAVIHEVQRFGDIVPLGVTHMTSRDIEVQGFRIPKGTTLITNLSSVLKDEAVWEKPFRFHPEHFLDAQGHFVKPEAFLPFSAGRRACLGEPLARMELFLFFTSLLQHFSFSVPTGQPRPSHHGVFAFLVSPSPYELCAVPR

Structure (SMILES): Cc1nc(N2CCC3(CC2)CO[C@@H](C)[C@H]3N)c(CO)nc1Sc1ccnc(N2CCCC2CO)c1Cl (stereo partly shown) [Example 1]
IC50 (CYP1A2): > 10 µM
IC50 (CYP2D6): > 10 µM
IC50 [1]: 360 nM

Structure (SMILES): C[C@@H]1OCC2(CCN(c3ncc(Sc4ccnc(N5CCCC5CO)c4Cl)nc3CO)CC2)[C@@H]1N (stereo partly shown) [Example 2]
IC50 (CYP1A2): > 10 µM
IC50 (CYP2D6; [3]): > 10 µM
IC50 [2]: 40 nM
IC50 [1]: 100 nM

Structure (SMILES): C[C@@H]1OCC2(CCN(c3ncc(Sc4ccnc(N5CC(CC#N)C5)c4Cl)nc3CO)CC2)[C@@H]1N [Example 5, 2-(1-(4-(5-((3S,4S)-4-amino-3-methyl-2-oxa-8-azaspiro[4.5]decan-8-yl)-6-(hydroxymethyl)pyrazin-2-ylthio)-3-chloropyridin-2-yl)azetidin-3-yl)acetonitrile]
IC50 (CYP1A2): > 10 µM
IC50 (CYP2D6): > 10 µM
IC50 [2]: 34 nM
IC50 [1]: 60 nM

Structure (SMILES): C[C@@H]1OCC2(CCN(c3ncc(Sc4ccnc(N5CC(CO)C5)c4Cl)nc3CO)CC2)[C@@H]1N [Example 6, (3-((3S,4S)-4-amino-3-methyl-2-oxa-8-azaspiro[4.5]decan-8-yl)-6-(3-chloro-2-(3-(hydroxymethyl)azetidin-1-yl)pyridin-4-ylthio)pyrazin-2-yl)methanol]
IC50 (CYP1A2): > 10 µM
IC50 (CYP2D6): > 10 µM
IC50 [2]: 74 nM
IC50 [1]: 40 nM

Structure (SMILES): C[C@@H]1OCC2(CCN(c3ncc(Sc4ccnc(N5CC(C(C)(C)O)C5)c4Cl)nc3CO)CC2)[C@@H]1N [Example 12, 2-(1-(4-(5-((3S,4S)-4-amino-3-methyl-2-oxa-8-azaspiro[4.5]decan-8-yl)-6-(hydroxymethyl)pyrazin-2-ylthio)-3-chloropyridin-2-yl)azetidin-3-yl)propan-2-ol]
IC50 (CYP1A2): > 10 µM
IC50 (CYP2D6): > 10 µM
IC50 [2]: 18 nM
IC50 [1]: 40 nM

Structure (SMILES): CC(C)(O)C1CN(c2nccc(Sc3cnc(N4CCC5(CC4)COC[C@H]5N)c(CO)n3)c2Cl)C1 [Example 13, (S)-2-(1-(4-(5-(4-amino-2-oxa-8-azaspiro[4.5]decan-8-yl)-6-(hydroxymethyl)pyrazin-2-ylthio)-3-chloropyridin-2-yl)azetidin-3-yl)propan-2-ol]
IC50 (CYP1A2): > 10 µM
IC50 (CYP2D6; [3]): > 10 µM
IC50 [2]: 260 nM

Structure (SMILES): C[C@@H]1OCC2(CCN(c3ncc(Sc4ccnc(NCC5(O)CC5)c4Cl)nc3CO)CC2)[C@@H]1N [Example 15, 1-((4-(5-((3S,4S)-4-amino-3-methyl-2-oxa-8-azaspiro[4.5]decan-8-yl)-6-(hydroxymethyl)pyrazin-2-ylthio)-3-chloropyridin-2-ylamino)methyl)cyclopropan-1-ol]
IC50 (CYP1A2): > 10 µM
IC50 (CYP2D6): > 10 µM
IC50 [2]: 40 nM
IC50 [1]: 40 nM

Structure (SMILES): CC(O)C1CN(c2nccc(Sc3cnc(N4CCC5(CC4)CO[C@@H](C)[C@H]5N)c(CO)n3)c2Cl)C1 (stereo partly drawn) [Example 17, 1-(1-(4-(5-((3S,4S)-4-amino-3-methyl-2-oxa-8-azaspiro[4.5]decan-8-yl)-6-(hydroxymethyl)pyrazin-2-ylthio)-3-chloropyridin-2-yl)azetidin-3-yl)ethan-1-ol]
IC50 (CYP1A2): > 10 µM
IC50 (CYP2D6): > 10 µM
IC50 [2]: 39 nM
IC50 [1]: 30 nM

Structure (SMILES): C[C@@H]1OCC2(CCN(c3ncc(Sc4ccnc(N5CCCC5CC(N)=O)c4Cl)nc3CO)CC2)[C@@H]1N (stereo partly drawn) [Example 19, 2-(1-(4-(5-((3S,4S)-4-amino-3-methyl-2-oxa-8-azaspiro[4.5]decan-8-yl)-6-(hydroxymethyl)pyrazin-2-ylthio)-3-chloropyridin-2-yl)pyrrolidin-2-yl)acetamide]
IC50 (CYP1A2): > 10 µM
IC50 (CYP2D6; [3]): > 10 µM
IC50 [2]: 220 nM
IC50 [1]: 190 nM

Structure (SMILES): COCC1CN(c2nccc(Sc3cnc(N4CCC5(CC4)CO[C@@H](C)[C@H]5N)c(CO)n3)c2Cl)C1 [Example 21, (3-((3S,4S)-4-amino-3-methyl-2-oxa-8-azaspiro[4.5]decan-8-yl)-6-(3-chloro-2-(3-(methoxymethyl)azetidin-1-yl)pyridin-4-ylthio)pyrazin-2-yl)methanol]
IC50 (CYP1A2): > 10 µM
IC50 (CYP2D6): > 10 µM
IC50 [2]: 30 nM
IC50 [1]: 110 nM

IC50 (CYP1A2; [4]): > 10 µM
IC50 (CYP2D6; [3]): > 10 µM
IC50 [2]: 31 nM
IC50 [1]: 50 nM
Structure (SMILES): CC(C)(O)C1CN(c2nccc(Sc3cnc(N4CCC5(CC4)Oc4ccccc4[C@H]5N)c(CO)n3)c2Cl)C1 [Example 22, (R)-2-(1-(4-(5-(3-amino-3H-spiro[benzofuran-2,4′-piperidin]-1′-yl)-6-(hydroxymethyl)pyrazin-2-ylthio)-3-chloropyridin-2-yl)azetidin-3-yl)propan-2-ol]

IC50 (CYP1A2; [4]): > 10 µM
IC50 (CYP2D6; [3]): > 10 µM
IC50 [2]: 5 nM
IC50 [1]: 140 nM
Structure (SMILES): CC(C)(O)C1CN(c2nccc(Sc3cnc(N4CCC5(CC4)Cc4ccccc4[C@H]5N)c(CO)n3)c2Cl)C1 [Example 23, (S)-2-(1-(4-(5-(1-amino-1,3-dihydrospiro[indene-2,4′-piperidin]-1′-yl)-6-(hydroxymethyl)pyrazin-2-ylthio)-3-chloropyridin-2-yl)azetidin-3-yl)propan-2-ol]

Structure (SMILES): Cc1nc(N2CCC3(CC2)CO[C@@H](C)[C@H]3N)c(CO)nc1Sc1ccnc(N2CC(CS(C)(=O)=O)C2)c1Cl [Example 25, (3-((3S,4S)-4-amino-3-methyl-2-oxa-8-azaspiro[4.5]decan-8-yl)-6-(3-chloro-2-(3-(methylsulfonylmethyl)azetidin-1-yl)pyridin-4-ylthio)-5-methylpyrazin-2-yl)methanol]
IC50 (CYP1A2): > 10 µM
IC50 (CYP2D6): > 10 µM
IC50 [2]: 150 nM

Structure (SMILES): C[C@@H]1OCC2(CCN(c3cnc(Sc4ccnc(N5CC(C(C)(C)O)C5)c4Cl)cn3)CC2)[C@@H]1N [Example 28, 2-(1-(4-(5-((3S,4S)-4-amino-3-methyl-2-oxa-8-azaspiro[4.5]decan-8-yl)pyrazin-2-ylthio)-3-chloropyridin-2-yl)azetidin-3-yl)propan-2-ol]
IC50 (CYP1A2): > 10 µM
IC50 (CYP2D6): > 10 µM
IC50 [2]: 130 nM

Structure (SMILES): C[C@@H]1OCC2(CCN(c3ncc(Sc4ccnc(N5CC(C(C)(C)O)C5)c4F)nc3CO)CC2)[C@@H]1N [Example 40, 2-(1-(4-(5-((3S,4S)-4-amino-3-methyl-2-oxa-8-azaspiro[4.5]decan-8-yl)-6-(hydroxymethyl)pyrazin-2-ylthio)-3-fluoropyridin-2-yl)azetidin-3-yl)propan-2-ol]
IC50 (CYP1A2): > 10 µM
IC50 (CYP2D6): > 10 µM
IC50 [2]: 30 nM
